# Reference: patent US20050257279A1, “Agouti-related protein deficient cells, non-human transgenic animals and methods of selecting compounds which regulate energy metabolism” (priority 2002, published 2005)
# pEC50: −log10 of the molar value. Entries after “also recorded” stand apart in the source; their conditions may differ.
# Tests used:
# [1] = 4-hour light-phase food intake in mice; assay type: in vivo; settings: human ghrelin 3 μmole/kg i.p.
# Source text: Mice were individually housed at approximately one month of age. Regular mouse chow (Teklad 7012: 5.67% kcal from fat; 3.41 kcal/g, Harlan Teklad) was provided as pellet food in wire cage tops containing food hoppers.
# Food intake values were reported as means ± standard errors of the means, and analyzed by the two tailed, unpaired Student t test. P values of <0.05 were reported as significant.
# [2] = system: primary cultures of rat anterior pituitary cells; test: Rat pituitary growth hormone (GH) release; assay type: cell-based; settings: 15 min incubation
# Description: Rat Pituitary Growth Hormone (GH) Release: Compound functional activity was evaluated by measuring growth hormone secretion from primary cultures of rat anterior pituitary cells (Small, et al., (1998) Regulatory Peptides 75-76 and 301-307). Cells were isolated from rat pituitaries by enzymatic digestion with 250 μg/mL DNAse 1 and 0.5% trypsin in Hanks' balanced salt solution. The cells were suspended in culture medium and adjusted to a concentration of 1.5×10^5 cells/ml and 1.0 ml of this suspension was placed in each well of a 24-well tray. Cells were maintained in a humidified 5% CO2/95% air atmosphere at 37° C. for 3-4 days. The culture medium consisted of DMEM containing 0.37% NaHCO3, 10% horse serum, 2.5% fetal bovine serum, 1% nonessential amino acids, 1% glutamine, 1% nystatin, and 0.1% gentamicin. Before testing compounds for their capacity to […] GH release, cells were washed twice 1.5 hr before and once more immediately before the start of the experiment with the above culture medium containing 25 mM Hepes (pH 7.4). Compounds were tested in quadruplicate by adding them in 1 ml of fresh medium to each well and incubating them at 37° C. for 15 minutes followed by centrifugation at 2000×g for 15 min to remove any cellular material. The supernatant fluid was assayed for GH by a double antibody radioimmunoassay.
structure (smiles),measurement,setting,value
CCCCCCCC(=O)OC[C@H](NC(=O)[C@H](CO)NC(=O)CN)C(=O)N[C@@H](Cc1ccccc1)C(=O)N[C@@H](CC(C)C)C(=O)N[C@@H](CO)C(=O)N1CCC[C@H]1C(=O)N[C@@H](CCC(=O)O)C(=O)N[C@@H](Cc1c[nH]cn1)C(=O)N[C@@H](CCC(N)=O)C(=O)N[C@@H](CCCNC(=N)N)C(=O)N[C@H](C(=O)N[C@@H](CCC(N)=O)C(=O)N[C@@H](CCC(N)=O)C(=O)N[C@@H](CCCNC(=N)N)C(=O)N[C@@H](CCCCN)C(=O)N[C@@H](CCC(=O)O)C(=O)N[C@@H](CO)C(=O)N[C@@H](CCCCN)C(=O)N[C@@H](CCCCN)C(=O)N1CCC[C@H]1C(=O)N1CCC[C@H]1C(=O)N[C@@H](C)C(=O)N[C@@H](CCCCN)C(=O)N[C@@H](CC(C)C)C(=O)N[C@@H](CCC(N)=O)C(=O)N1CCC[C@H]1C(=O)N[C@@H](CCCNC(=N)N)C(=O)O)C(C)C [Ghrelin],effect on 4-hour food intake,"[1]; Agrp-/-, Npy-/- double knockout mice",no effect; also recorded: without effect
same,stimulation of 4-hour food intake,"[1]; wild-type control mice, ad libitum fed, relative to saline",120%
same,effect on 4-hour food intake,"[1]; wild-type mice, relative to saline",stimulated 4-hour food intake
same,pEC50,[2],9.15
